Like-named read-outs stand apart in the source and are kept apart here.
Key:
Caucasian liver S9 = experiment: Oxidation of 1′-hydroxyestragole by Caucasian liver S9 (NAD+, GSH trapping); assay type: in vitro ADME, human
Protocol: (§1) Mixed gender Chinese or Caucasian liver S9 was incubated with 1′-hydroxyestragole in the presence of NAD^+ and GSH, the latter added to trap the transient 1′-oxoestragole. Formation of the 1′-oxoestragole adducts with GSH forming GS-1′-oxoestragole reflects the formation of 1′-oxoestragole (Punt et al. [2009]). […] The reactions were terminated after 10 min by the addition of 25 μL ice-cold acetonitrile. Blank incubations were performed without cofactor NAD^+. All incubations were performed in triplicate.
(§2) Secondary metabolism of 1′-hydroxyestragole includes glucuronidation, oxidation, and sulfation. The gradient of analysis of the metabolites of 1′-hydroxyestragole can be found in supporting materials 2. Table S1 can be used to track more detailed information.
(§3) Identification of the GS-1′-oxoestragole which reflects the formation of 1′-oxoestragole was done by comparing the UV spectra and retention time of the formed GSH adduct to those of GS-1′-oxoestragole identified as described previously (Punt et al. [2009]). Quantification of the GSH conjugate of 1′-oxoestragole was achieved by comparing the peak area to the calibration curve of GS-1′-oxoestragole at a wavelength of 280 nm prepared as described previously by Punt et al. ([2009], [2016]). Briefly, the calibration curve of GS-1′-oxoestragole was prepared by incubating 40 μM 1′-oxoestragole with a range of GSH concentrations. The reactions were incubated for 4 h after which maximal formation of GS-1′-oxoestragole was previously shown to be reached (Punt et al. [2009]).
(§4) Mixed gender Chinese or Caucasian liver S9 was incubated with 1'-hydroxyestragole in the presence of NAD^+ and GSH, the latter added to trap the transient 1'-oxoestragole. Formation of the 1'-oxoestragole adducts with GSH forming GS-1'-oxoestragole reflects the formation of 1'-oxoestragole (Punt et al. 2009). […] The mixtures were pre-incubated for 1 min at 37 °C, after which the reactions were started by adding the substrate 1'-hydroxyestragole at concentrations ranging from 15 to 1000 μM added from 100 times concentrated stock solutions in DMSO. The reactions were terminated after 10 min by the addition of 25 μl ice-cold acetonitrile. Under these conditions, the formation of the GSH adduct of 1'-oxoestragole was linear with time and cytosolic protein concentration (Punt et al. 2009). Blank incubations were performed without cofactor NAD^+. All incubations were performed in triplicate.
(§5) The gradient for analysis of the metabolites contains a mixture of acetonitrile and 0.1 % TFA in ultrapure water with 0.6 ml/min flow rate.

Chinese liver S9 = experiment: Oxidation of 1′-hydroxyestragole by Chinese liver S9 (NAD+, GSH trapping); assay type: in vitro ADME, human
Protocol: as §1, §2, §3, §4, §5

Chinese liver microsomes = experiment: Microsomal conversion of estragole by Chinese liver microsomes (NADPH); conditions: for Catalytic efficiency (scaled V max / K m) / Scaled V max: formation from estragole, Chinese; for Scaled V max: scaled with microsomal protein yield 35 mg/(g tissue); for Catalytic efficiency (V max/K m × 1000) / K m / V max: formation of the metabolite from estragole, Chinese liver microsomes; for K m / V max: average ± SEM; for Catalytic efficiency for formation of the metabolite, lower in Chinese than in Caucasian samples / V max for formation of the metabolite, lower in Chinese than in Caucasian samples: in vitro, liver microsomes
Protocol: (§6) The incubation mixtures contained (final concentrations) 3 mM NADPH and 1 mg/mL microsomal protein in 0.2 M Tris–HCl (pH 7.4). Incubations were performed for 10 min at substrate concentrations ranging from 25 to 1000 μM, after which the reaction was terminated by adding 25 μL ice-cold acetonitrile. Blank incubations were performed in the absence of the cofactor NADPH. All incubations were performed in triplicate. In the supporting materials 2, detailed information can be found (Table S1 can be used to keep track of detailed information).
(§7) Before UPLC analysis, all samples were centrifuged for 5 min at 16,000 g to precipitate microsomal proteins. Supernatant of each sample was analyzed on UPLC using a BEH C18 (1.7 μm, 2.1 × 50 mm) column with a guard column and a diode array detector (Acquity, Waters). […] Table S1 can be used to keep track of detailed information.
(§8) The apparent maximum velocity (V max) and the apparent Michaelis–Menten constant (K m) were determined by fitting the data to this equation using GraphPad Prism version 5.0 (GraphPad software, San Diego California USA).
(§9) The incubation mixtures contained (final concentrations) 3 mM NADPH and 1 mg/ml microsomal protein in 0.2 M Tris-HCl (pH 7.4). […] Incubations were performed for 10 min at substrate concentrations ranging from 25 to 1000 μM, after which the reaction was terminated by adding 25 μl ice-cold acetonitrile. […] Blank incubations were performed in the absence of the cofactor NADPH. All incubations were performed in triplicate.
The flow rate was 0.6 ml/min and the gradient started with 100 % ultrapure water.

[1] = tested on: Caucasian liver microsomes; experiment: Microsomal conversion of estragole by Caucasian liver microsomes (NADPH); assay type: in vitro ADME, human; conditions: for Catalytic efficiency (scaled V max / K m) / Scaled V max: formation from estragole, Caucasian; for Catalytic efficiency (scaled V max / K m): scaled to liver; for Scaled V max: scaled with microsomal protein yield 35 mg/(g tissue); for Catalytic efficiency (V max/K m × 1000) / K m / V max: formation of the metabolite from estragole, Caucasian liver microsomes; for K m / V max: average ± SEM
Protocol: as §6
as §7, with “information. […] 3′-Hydroxyanethole was quantified by comparison of the peak areas of the metabolite in the chromatograms obtained at a wavelength of 206 nm to the calibration curve of the synthesized reference compound (Agharahimi and LeBel [1995]; Drinkwater et al. [1976]; Iyer et al. [2003]; Luo et al. [1992]).” for “information.”
as §8, §9
The flow rate was 0.6 ml/min and the gradient started with 100 % ultrapure water. After 1 min, the amount of acetonitrile was increased to 10 % and kept at that level for 1 min, after which the percentage of acetonitrile was increased to 35 % in 2.5 min and then increased to 100 % over 0.5 minute and kept at 100 % acetonitrile for another 1 min, and finally back to the starting conditions.

[2] = ref Barter et al. [2013], cited from earlier work
[3] = PBK prediction, ref Barter et al. [2013], cited from earlier work
[4] = formation from 1′-hydroxyestragole (oxidation), Caucasian liver S9
[5] = formation from 1′-hydroxyestragole (oxidation), Caucasian liver S9, listed as 1′-oxoestragole
[6] = formation from 1′-hydroxyestragole (oxidation), Chinese liver S9
[7] = formation from 1′-hydroxyestragole (oxidation), Chinese liver S9, listed as 1′-oxoestragole

SMILES | Catalytic efficiency (scaled V max / K m) (Chinese liver microsomes; scaled to liver) | Scaled V max (Chinese liver microsomes) | Catalytic efficiency (V max/K m × 1000) (Chinese liver microsomes) | K m (Chinese liver microsomes) | V max (Chinese liver microsomes) | Catalytic efficiency for formation of the metabolite, lower in Chinese than in Caucasian samples (Chinese liver microsomes; conversion of estragole) | V max for formation of the metabolite, lower in Chinese than in Caucasian samples (Chinese liver microsomes; conversion of estragole) | Catalytic efficiency (scaled V max / K m) [1] | Scaled V max [1] | Catalytic efficiency (V max/K m × 1000) [1] | K m [1] | V max [1] | other results
C=CC(=O)c1ccc(OC)cc1 [1′-Oxoestragole] |  |  |  |  |  |  |  |  |  |  |  |  | Catalytic efficiency (V max/K m × 1000) (Caucasian liver S9; [4]): 5.4 µL/min/mg microsomal or S9 protein; K m (Caucasian liver S9; [4]): 521 ± 265 µM; V max (Caucasian liver S9; [4]): 2.8 ± 0.70 nmol /min/mg microsomal or S9 protein; K m (Caucasian liver S9; [5]): 521 µM; V max (Caucasian liver S9; [5]): 2.8 nmol /min/mg microsomal or S9; Scaled V max (Caucasian liver S9; oxidation of 1′-hydroxyestragole, Caucasian, S9 protein yield 143 mg/(g tissue)): 24.0 µmol/h/g liver; Catalytic efficiency (scaled V max / K m) (Caucasian liver S9; oxidation of 1′-hydroxyestragole, Caucasian, scaled to liver): 46.1 µL/h/g liver; Catalytic efficiency (V max/K m × 1000) (Chinese liver S9; [6]): 4.5 µL/min/mg microsomal or S9 protein; K m (Chinese liver S9; [6]): 403 ± 137 µM; V max (Chinese liver S9; [6]): 1.82 ± 0.28 nmol /min/mg microsomal or S9 protein; K m (Chinese liver S9; [7]): 403 µM; V max (Chinese liver S9; [7]): 1.82 nmol /min/mg microsomal or S9; Catalytic efficiencies for formation of 1′-oxoestragole, Chinese versus Caucasian (Chinese liver S9; in vitro, oxidation of 1′-hydroxyestragole, liver S9): similar; Scaled V max (Chinese liver S9; oxidation of 1′-hydroxyestragole, Chinese, S9 protein yield 143 mg/(g tissue)): 15.6 µmol/h/g liver; Catalytic efficiency (scaled V max / K m) (Chinese liver S9; oxidation of 1′-hydroxyestragole, Chinese, scaled to liver): 38.7 µL/h/g liver; Scaled catalytic efficiencies for formation of 1′-oxoestragole, Chinese versus Caucasian (Chinese liver S9; scaled to liver, oxidation of 1′-hydroxyestragole): similar
COc1ccc(/C=C/CO)cc1 [3′-Hydroxyanethole] | 1.5 µL/h/g liver | 0.7 µmol/h/g liver | 0.71 µL/min/mg microsomal or S9 protein | 450 ± 219 µM | 0.32 ± 0.07 nmol /min/mg microsomal or S9 protein | 3.2 fold | 3.1 fold | 4.8 µL/h/g liver | 2.1 µmol/h/g liver | 2.3 µL/min/mg microsomal or S9 protein | 429 ± 80 µM | 0.99 ± 0.08 nmol /min/mg microsomal or S9 protein | 
C=CCc1ccc(O)cc1 [4-Allylphenol] | 2.7 µL/h/g liver | 0.3 µmol/h/g liver | 1.3 µL/min/mg microsomal or S9 protein | 115 ± 24 µM | 0.15 ± 0.01 nmol /min/mg microsomal or S9 protein | 1.8 fold | 5.0 fold | 5.0 µL/h/g liver | 1.6 µmol/h/g liver | 2.4 µL/min/mg microsomal or S9 protein | 308 ± 71 µM | 0.74 ± 0.07 nmol /min/mg microsomal or S9 protein | 
COc1ccc(CC2CO2)cc1 (stereo not drawn) [Estragole-2′,3′-oxide] | 5.5 µL/h/g liver | 0.9 µmol/h/g liver | 2.6 µL/min/mg microsomal or S9 protein | 161 ± 17 µM | 0.42 ± 0.01 nmol /min/mg microsomal or S9 protein | 4.9 fold | 4.4 fold | 26.6 µL/h/g liver | 3.9 µmol/h/g liver | 12.7 µL/min/mg microsomal or S9 protein | 146 ± 15 µM | 1.85 ± 0.06 nmol /min/mg microsomal or S9 protein | V max, lower in Chinese than in Caucasian liver incubations (Chinese liver microsomes; scaled kinetic constants (Table 3), conversion of estragole): fourfold; Scaled catalytic efficiency, lower for Chinese than Caucasian liver microsomes (Chinese liver microsomes; scaled to liver, conversion of estragole): fivefold
Cc1nnc2n1-c1ccc(Cl)cc1C(c1ccccc1)=NC2 [alprazolam] |  |  |  |  |  |  |  |  |  |  |  |  | Experimentally observed clearance, lower in Chinese individuals than in Caucasian volunteers ([2]; intravenous): 20%; Experimentally observed clearance, lower in Chinese individuals than in Caucasian volunteers ([2]; oral): 21%; Predicted clearance, lower in Chinese than in Caucasian subjects ([3]; intravenous): 21%; Predicted clearance, lower in Chinese than in Caucasian subjects ([3]; oral): 22%
Cc1ncc2n1-c1ccc(Cl)cc1C(c1ccccc1F)=NC2 [midazolam] |  |  |  |  |  |  |  |  |  |  |  |  | Experimentally observed clearance, lower in Chinese individuals than in Caucasian volunteers ([2]; intravenous): 19%; Experimentally observed clearance, lower in Chinese individuals than in Caucasian volunteers ([2]; oral): 62%; Predicted clearance, lower in Chinese than in Caucasian subjects ([3]; intravenous): 24%; Predicted clearance, lower in Chinese than in Caucasian subjects ([3]; oral): 17%
COc1ccc2[nH]c([S+]([O-])Cc3ncc(C)c(OC)c3C)nc2c1 (stereo not drawn) [omeprazole] |  |  |  |  |  |  |  |  |  |  |  |  | Experimentally observed clearance, lower in Chinese individuals than in Caucasian volunteers ([2]; route not stated): 75%; Predicted clearance, lower in Chinese than in Caucasian subjects ([3]; route not stated): 51%
CCCCNC(=O)NS(=O)(=O)c1ccc(C)cc1 [tolbutamide] |  |  |  |  |  |  |  |  |  |  |  |  | Experimentally observed clearance, lower in Chinese individuals than in Caucasian volunteers ([2]; route not stated): 2%; Predicted clearance, lower in Chinese than in Caucasian subjects ([3]; route not stated): 25%

From publication PMC5562778 (Archives of Toxicology, 2017)
